Measured values published in patent US20060014709A1, “Drug or cosmetic” (priority 2002, published 2006).
Where “and” joins values, the source holds several entries; their conditions need not be identical. Identical values can stand only once. Entries after “also recorded” stand apart in the source; their conditions may differ. Marks after values point to notes of the source that are not given here.

Legend:
Format in all cases: in vivo
[1] = system: male SD rats, obstruction-released kidney (glomerular lesions and tubulointerstitial lesions); assay: Obstruction release model after complete obstruction of unilateral ureter for 14 days (Example 2-1); design: key to Tubulointerstitial lesions: level of lesions (quality): summed lesion score: + = 1, ++ = 2, +++ = 3 points; conditions: rat
Description: (§1) That is, the rat was laparotomized under anesthesia with ether and left ureter was ligated with 7-0 Nylon at the height of the margin of lower pole of kidney to close the abdomen. On the 14th day after obstruction, the obstruction was released and urinary passage was reconstructed using a cuff. Thus, after 14 days, the part of ligated obstructed ureter was resected, a polyethylene tube of 25 gages (manufactured by Nippon Sherwood) was used as a cuff and inserted into and retained at the lumen from the cut end of the lower normal ureter, then the cuff was also retained in the expanded upper ureter and each of them was ligated and fixed by 7-0 Nylon to reconstruct the urinary passage. At the same time, the right kidney at the opposite side was excised. After the release of the obstruction, body weight was measured, blood was drawn on the 2nd day, 5th day and 7th day from the release to measure serum creatinine, then the rat was killed under anesthesia and the left obstruction-released kidney was excised.
With regard to the excised kidney, there were carried out measurements of weight of the kidney, creatinine concentration mg/dl in plasma as an indicator of kidney function and pathological test for the kidney, and also leukocyte cells which infiltrate the obstruction-released kidney were immunopathologically studied with cell surface markers for ED1 macrophages, CD11b (ED8) positive macrophages and CD5 positive lymphocytes. A number of positive cells was expressed as a number of cells per glomerulus from measured numbers of positive cells in five glomeruli, and for a number in tubulointerstitial tissue, it was expressed by the total number of cells existing in five fields of 200×magnification. For macrophages, a number of CD11b positive cells existing in glomerulus was considered as a number of CD11b^+CD2^+ macrophages and a case of existing not less than one positive cell per glomerulus was considered as positive (+). In the tubulointerstitial tissue, a number of […] 60 CD11b positive cells was considered as positive (+), or a case of CD11b^−CD2^+ macrophages dominantly increasing. Scoring of evaluation of tubulointerstitial lesions was as follows: + gets 1-point as a light lesion; ++ gets 2-point as a moderate lesion; and +++ gets3-point as a severe lesion. For glomerular lesions, when a proportion of lesioned glomeruli was decreased to not more than 40%, and for tubulointerstitial lesions, when a score of the lesions was not more than 4, it was considered as improved.
For glomerular lesions, by counting glomeruli causing thickening of Bowman's capsule wall and glomerular hyalinosis, a proportion of glomeruli having lesions was calculated. For tubulointerstitial lesions, by qualifying hyperplasia of tubular basement membrane and interstitial fibrosis, levels of the lesions were represented.
(§2) An in vivo biological test was carried out for the γ-lactone derivative according to the present invention using this model. Bulk powder of a test compound was dissolved in sterile physiological saline together with gum arabic, and concentrations of the test compound and gum arabic were adjusted to 30 mg/mL and 5% respectively. The preparation was administered orally or subcutaneously injected at the dose of 30 mg/kg or 3 mg/kg every day. The administration was conducted for the total 21 days of the obstructed period for 14 days and after release of the obstruction for 7 days.
For test groups, a group administered single compound group, a group administered both compound group and a control group administered solution of gum arabic were set up and compared for renal functions and morphological evaluations, as well as numbers of ED1, CD5, CD11b positive cells by means of immunopathology.

[2] = system: male SD rats, obstruction-released kidney (glomerular lesions and tubulointerstitial lesions); assay: Obstruction release model after complete obstruction of unilateral ureter for 14 days (Example 2-2); design: key to Tubulointerstitial lesions: level of lesions: summed lesion score; + = 1, ++ = 2, +++ = 3; ≤6.5 improved; conditions: rat, 30 mg/kg subcutaneously
Description: as §1, §2
For cell surface markers of leukocyte cells which infiltrate the obstruction-released kidney, ED1, CD11b (ED8), CD5 and CD2 were used. […] For CD5^+, a number of not less than 20 per glomerulus was considered as positive. For glomerular lesions, which was characterized by Bowman's capsule wall, glomerular hyalinosis, dilation of urinary space pole and hypertrophy of parietal cells, 50 glomeruli were evaluated to obtain a proportion of pathologic glomeruli. For tubulointerstitial lesions, levels of the lesions were represented by qualifying hyperplasia of tubular basement membrane, tubular enlargement and atrophy and interstitial fibrosis. Scoring was as follows: + gets 1-point as a light lesion; ++ gets 2-point as a moderate lesion; and +++ gets 3-point as a severe lesion. Levels of cell infiltration were evaluated qualitatively according to the above three-point scale. For glomerular lesions, when a proportion of lesioned glomeruli was decreased to not more than 20%, and for tubulointerstitial lesions, when a score of the lesions was not more than 6.5, it was considered as improved.
Numbers of cells positive for CD11b (ED8), CD2 and CD5 were compared by means of immunopathology, and CD11b^+CD2^+ macrophages were considered as regeneration-promoting macrophages in glomeruli and CD11b^−CD2^+CD5+ macrophages were considered as regeneration-promoting macrophages to tubulointerstitial lesions, and herewith, it was estimated whether each cell group is quantitatively dominant or not.

[3] = system: male SDT rats (spontaneously type II diabetes model), complete skin-excised wounds; assay: Complete skin-excised model, wound healing; conditions: SDT rat, 10 mg/kg subcutaneously every day
Description: Using male SDT rats of 28-30 weeks age, which were a spontaneously type II diabetes model, promoting effect on repair and regeneration in wound healing after complete skin excision were examined according to a partially modified method of Breitbout AS et al. (Ann Plast Surg 1999, 43: 632). That is, an animal was shaved at its back under anesthesia with ether, and skin in 2×2 cm size was excised together with panniculus carnosus in same size to make two complete skin-excised wounds per animal.
Healings of the wounds were observed on the 1st day, 4th day, 7th day, 12h day, 15th day, 21st day and 28th day from the operation. An area of the wounds was obtained as the product of the average vertical length and the average horizontal length which were measured along with a direction of the longest part in the wound.
A test compound was dissolved in sterile physiological saline together with gum arabic. Concentrations of the test compound and gum arabic were adjusted to 30 mg/mL and 5% respectively. The preparation was subcutaneously injected at the dose of 10 mg/kg every day. The administration was started on 6 days before the operation and continued to 28 days after the operation.

[4] = 30 mg/kg subcutaneously every day for 21 days, one value per animal, 30 mg/kg

C[C@@H](OC(=O)[C@@]1(Oc2ccc(F)cc2)CCC(=O)O1)c1ccc2ccccc2c1 [compound (II-1), (R)-1-naphthalen-2-ylethyl (R)-2-(4-fluorophenoxy)-5-oxotetrahydrofuran-2-carboxylate]
cases with increased regeneration-promoting CD11b^+CD2^+ macrophages to glomerular lesions ([1]; 30 mg/kg subcutaneously): all five cases
cases with increased regeneration-promoting CD11b^−CD2^+ macrophages to tubulointerstitial lesions ([1]; 30 mg/kg subcutaneously): four of five cases
pathological improvement of glomerular lesions (cases) ([1]; 30 mg/kg subcutaneously): four of five cases
pathological improvement of tubulointerstitial lesions (cases) ([1]; 30 mg/kg subcutaneously): no tubulointerstitial lesion was improved
Regeneration CD11b^+CD2^+ macrophages to glomerular lesions, Determination: increase = + ([1]; 30 mg/kg subcutaneously every day for 21 days, one value per animal): + (a case of existing not less than one positive cell per glomerulus was considered as positive (+))
Coincidence of two regeneration macrophages being positive [1, 4]: Coincident; also recorded: Not coincident
Glomerular lesions: proportion of lesioned glomeruli (%) [1, 4]: 10% and 14% and 22% and 57% and 23%
Number of regeneration CD11b^+CD2^+ macrophages to glomerular lesions: number of positive cells per glomerulus [1, 4]: 1.2 cells per glomerulus and 1.7 cells per glomerulus and 1.1 cells per glomerulus and 2.8 cells per glomerulus and 2.0 cells per glomerulus
Number of regeneration CD11b^−CD2^+ macrophages to tubulointerstitial lesions: number of positive cells (CD11b) in five fields of 200× magnification [1, 4]: 39 cells in five fields of 200× m and 49 cells in five fields of 200× m and 15 cells in five fields of 200× m and 65 cells in five fields of 200× m and 26 cells in five fields of 200× m
Regeneration CD11b^−CD2^+ macrophages to tubulointerstitial lesions, Determination: increase + [1, 4]: + (a number of not more than 60 CD11b positive cells was considered as positive (+))
Serum creatinine [1, 4]: 2.6 mg/dl and 1.7 mg/dl (2×) and 2.0 mg/dl and 1.8 mg/dl
Tubulointerstitial lesions: level of lesions (quality) [1, 4]: 7.5 and 9.0 (2×) and 8.0 and 6.5
cases in which regeneration-promoting CD11b^+CD2^+ macrophages were predominant in glomeruli [2]: all five cases
cases in which regeneration-promoting CD11b^−CD2^+CD5+ macrophages were predominant in tubulointerstitial lesions [2]: negative in tubulointerstitial lesions in all cases
pathological improvement of glomerular lesions (cases) [2]: only one case
pathological improvement of tubulointerstitial lesions (cases) [2]: all five cases
Regeneration macrophages to glomerular lesions, Determination Increase + ([2]; one value per animal): + (a case of existing not less than one positive cell per glomerulus was considered as positive (+))
Degree of cell infiltration ([2]; one value per animal, 30 mg/kg): +++
Number of regeneration CD11b^+CD2^+ macrophages to glomerular lesions: number of positive cells per glomerulus CD11b^+CD2^+ ([2]; one value per animal, 30 mg/kg): 1.2 cells per glomerulus and 1.7 cells per glomerulus and 1.1 cells per glomerulus and 2.8 cells per glomerulus and 2.0 cells per glomerulus
Number of regeneration CD11b^−CD2^+CD5^+ macrophages to tubulointerstitial lesions: number of positive cells in five fields of 200× magnification, CD5^+ ([2]; one value per animal, 30 mg/kg): 6 cells in five fields of 200× m and 9 cells in five fields of 200× m and 3 cells in five fields of 200× m (2×) and 4 cells in five fields of 200× m
Number of regeneration CD11b^−CD2^+CD5^+ macrophages to tubulointerstitial lesions: number of positive cells in five fields of 200× magnification, CD11b^+ ([2]; one value per animal, 30 mg/kg): 39 cells in five fields of 200× m and 49 cells in five fields of 200× m and 15 cells in five fields of 200× m and 65 cells in five fields of 200× m and 26 cells in five fields of 200× m
Serum creatinine ([2]; one value per animal, 30 mg/kg): 2.6 mg/dl and 1.7 mg/dl (2×) and 2.0 mg/dl and 1.8 mg/dl
Tubulointerstitial lesions: level of lesions ([2]; one value per animal, 30 mg/kg): 8.0 (4×) and 6.0
Glomerular lesions: proportion of lesioned glomeruli (%) ([2]; one value per animal, 50 glomeruli evaluated, 30 mg/kg): 16% (2×) and 12% (2×) and 8%
Excised wound area (cm^2) ([3]; 1st day after complete skin excision): 3.33 cm^2
Excised wound area (cm^2) ([3]; 4th day after complete skin excision): 2.31 cm^2
Excised wound area (cm^2) ([3]; 7th day after complete skin excision): 1.62 cm^2
Excised wound area (cm^2) ([3]; 12th day after complete skin excision): 0.52** cm^2
Excised wound area (cm^2) ([3]; 15th day after complete skin excision): 0.55 cm^2
Excised wound area (cm^2) ([3]; 21st day after complete skin excision): 0.44 cm^2
Crust formation/number of wound ([3]; 21st day after the operation): 0/8
crust formation on the surface of repaired wounds (in words) ([3]; 28th day): no crust formation occurred
Excised wound area (cm^2) ([3]; 28th day after complete skin excision): 0.29 cm^2
Crust formation/number of wound ([3]; 28th day after the operation): 1/8
promoting effect on wound healing (in words) ([3]; versus the control group, 10 mg/kg): significant promoting effect on wound healing at 12th day after the operation; also recorded: promoting effect on healing of epidermis
